Laboratory results from ChEMBL document CHEMBL1141668, “Synthesis and biological activity of imidazopyridine anticoccidial agents: Part II” (Eur J Med Chem, 2008).
Blank lines part the entries; values can stand above or below the molecule they belong to.

Columns and labels:
[1] = molecular target: cGMP-dependent protein kinase (Eimeria tenella, UniProt Q8MMZ8); test: Inhibition of Eimeria tenella cGMP-dependent protein kinase
[2] = test system: Eimeria tenella; test: Anticoccidial activity against Eimeria tenella in chickens assessed as reduction of oocysts at 25 ppm measured after 8 days by ExMAC assay relative to untreated control; type: functional; design: scale not given: the % may be the effect or the level left
[3] = test system: Eimeria acervulina; test: Anticoccidial activity against Eimeria acervulina in chickens assessed as reduction of oocysts at 25 ppm measured after 8 days by ExMAC assay relative to untreated control; type: functional; design: scale not given: the % may be the effect or the level left
[4] = test system: Eimeria mitis; test: Anticoccidial activity against Eimeria mitis in chickens assessed as reduction of oocysts at 25 ppm measured after 8 days by ExMAC assay relative to untreated control; type: functional; design: scale not given: the % may be the effect or the level left
[5] = test system: Eimeria maxima; test: Anticoccidial activity against Eimeria maxima in chickens assessed as reduction of oocysts at 25 ppm measured after 8 days by ExMAC assay relative to untreated control; type: functional; design: scale not given: the % may be the effect or the level left
[6] = test system: Eimeria tenella; test: Anticoccidial activity against Eimeria tenella in chickens assessed as reduction of oocysts at 6.25 ppm measured after 8 days by ExMAC assay relative to untreated control; type: functional; design: scale not given: the % may be the effect or the level left
[7] = test system: Eimeria tenella; test: Anticoccidial activity against Eimeria tenella in chickens assessed as reduction of oocysts at 12.5 ppm measured after 8 days by ExMAC assay relative to untreated control; type: functional; design: scale not given: the % may be the effect or the level left
[8] = test system: Eimeria acervulina; test: Anticoccidial activity against Eimeria acervulina in chickens assessed as reduction of oocysts at 6.25 ppm measured after 8 days by ExMAC assay relative to untreated control; type: functional; design: scale not given: the % may be the effect or the level left
[9] = test system: Eimeria acervulina; test: Anticoccidial activity against Eimeria acervulina in chickens assessed as reduction of oocysts at 12.5 ppm measured after 8 days by ExMAC assay relative to untreated control; type: functional; design: scale not given: the % may be the effect or the level left
[10] = test system: Eimeria mitis; test: Anticoccidial activity against Eimeria mitis in chickens assessed as reduction of oocysts at 6.25 ppm measured after 8 days by ExMAC assay relative to untreated control; type: functional; design: scale not given: the % may be the effect or the level left
[11] = test system: Eimeria mitis; test: Anticoccidial activity against Eimeria mitis in chickens assessed as reduction of oocysts at 12.5 ppm measured after 8 days by ExMAC assay relative to untreated control; type: functional; design: scale not given: the % may be the effect or the level left
[12] = test system: Eimeria maxima; test: Anticoccidial activity against Eimeria maxima in chickens assessed as reduction of oocysts at 6.25 ppm measured after 8 days by ExMAC assay relative to untreated control; type: functional; design: scale not given: the % may be the effect or the level left
[13] = test system: Eimeria maxima; test: Anticoccidial activity against Eimeria maxima in chickens assessed as reduction of oocysts at 12.5 ppm measured after 8 days by ExMAC assay relative to untreated control; type: functional; design: scale not given: the % may be the effect or the level left

Sequence of cGMP-dependent protein kinase (Q8MMZ8 whole entry): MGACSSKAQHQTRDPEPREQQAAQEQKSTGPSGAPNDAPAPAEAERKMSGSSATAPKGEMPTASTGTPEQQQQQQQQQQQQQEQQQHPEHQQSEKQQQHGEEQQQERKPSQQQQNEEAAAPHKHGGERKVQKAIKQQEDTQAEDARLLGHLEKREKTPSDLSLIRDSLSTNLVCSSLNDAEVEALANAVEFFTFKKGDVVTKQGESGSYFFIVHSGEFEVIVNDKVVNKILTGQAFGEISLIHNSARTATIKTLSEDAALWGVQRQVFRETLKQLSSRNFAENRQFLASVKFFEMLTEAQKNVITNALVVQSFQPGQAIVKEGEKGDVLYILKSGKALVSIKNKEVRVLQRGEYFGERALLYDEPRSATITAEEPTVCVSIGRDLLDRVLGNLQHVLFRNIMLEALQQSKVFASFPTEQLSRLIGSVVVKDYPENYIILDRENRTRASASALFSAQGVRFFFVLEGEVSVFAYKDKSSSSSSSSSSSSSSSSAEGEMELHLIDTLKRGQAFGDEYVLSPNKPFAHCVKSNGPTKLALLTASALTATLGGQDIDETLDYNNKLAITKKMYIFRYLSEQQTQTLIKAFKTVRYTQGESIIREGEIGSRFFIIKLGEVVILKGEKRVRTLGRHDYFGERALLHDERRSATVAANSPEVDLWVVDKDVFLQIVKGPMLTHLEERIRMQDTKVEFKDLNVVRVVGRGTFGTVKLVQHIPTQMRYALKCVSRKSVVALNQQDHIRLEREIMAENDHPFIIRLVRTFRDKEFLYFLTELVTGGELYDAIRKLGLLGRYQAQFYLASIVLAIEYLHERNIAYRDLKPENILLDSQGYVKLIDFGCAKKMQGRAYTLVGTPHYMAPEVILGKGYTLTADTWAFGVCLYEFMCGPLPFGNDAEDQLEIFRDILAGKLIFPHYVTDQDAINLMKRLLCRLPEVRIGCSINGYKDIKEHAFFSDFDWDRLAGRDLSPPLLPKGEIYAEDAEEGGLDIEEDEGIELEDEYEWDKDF

SMILES: Nc1nccc(-c2c(-c3ccc(F)cc3)nc3cc(C4CCNCC4)ccn23)n1
IC50 [1]: 0.046 nM
Activity [2]: <50%
Activity [3]: <50%
Activity [4]: <50%
Activity [5]: 100%

SMILES: Nc1nccc(-c2c(-c3ccc(F)cc3)nc3cc(C4CCN(CCCO)CC4)ccn23)n1
IC50 [1]: 0.065 nM
Activity [2]: 100%
Activity [6]: <50%
Activity [7]: 100%
Activity [3]: 80%
Activity [8]: 50%
Activity [9]: 50%
Activity [4]: <50%
Activity [10]: <50%
Activity [11]: <50%
Activity [5]: <50%
Activity [12]: <50%
Activity [13]: <50%

SMILES: CC(C)(C)NCc1ccn2c(-c3ccnc(N)n3)c(-c3ccc(F)cc3)nc2c1
IC50 [1]: 0.35 nM

SMILES: CC(C)(C)CCN1CCC(c2ccn3c(-c4ccnc(N)n4)c(-c4ccc(F)cc4)nc3c2)CC1
IC50 [1]: 0.11 nM
Activity [7]: 80%
Activity [9]: <50%
Activity [11]: <50%

SMILES: CN1CCN(c2ccn3c(-c4ccnc(N)n4)c(-c4ccc(F)cc4)nc3c2)CC1
IC50 [1]: 0.23 nM
Activity [2]: 80%
Activity [6]: <50%
Activity [7]: 80%
Activity [3]: <50%
Activity [8]: <50%
Activity [9]: <50%
Activity [4]: 80%
Activity [10]: 50%
Activity [11]: 50%
Activity [5]: 100%
Activity [12]: <50%
Activity [13]: <50%

SMILES: CN1CCN(Cc2ccn3c(-c4ccnc(N)n4)c(-c4ccc(F)cc4)nc3c2)CC1
IC50 [1]: 2.2 nM
Activity [2]: 80%
Activity [7]: <50%
Activity [3]: <50%
Activity [9]: <50%
Activity [4]: 80%
Activity [11]: <50%
Activity [5]: 80%
Activity [13]: <50%

SMILES: CCN(CC)Cc1ccn2c(-c3ccnc(N)n3)c(-c3ccc(F)cc3)nc2c1
IC50 [1]: 0.17 nM
Activity [2]: 80%
Activity [6]: <50%
Activity [7]: 80%
Activity [3]: 50%
Activity [8]: <50%
Activity [9]: 50%
Activity [4]: 80%
Activity [10]: 50%
Activity [11]: <50%
Activity [5]: 80%
Activity [12]: <50%
Activity [13]: 80%

SMILES: COCCN(C)Cc1ccn2c(-c3ccnc(N)n3)c(-c3ccc(F)cc3)nc2c1
IC50 [1]: 0.26 nM
Activity [7]: <50%
Activity [9]: <50%
Activity [11]: <50%
Activity [13]: <50%

SMILES: CN(C)Cc1ccn2c(-c3ccnc(N)n3)c(-c3ccc(F)cc3)nc2c1
Activity [2]: 80%
Activity [6]: 80%
Activity [7]: 80%
Activity [3]: 80%
Activity [8]: 80%
Activity [9]: 80%
Activity [4]: 80%
Activity [10]: <50%
Activity [11]: 80%
Activity [5]: 80%
Activity [12]: <50%
Activity [13]: 80%

SMILES: CC(C)(CN)c1ccn2c(-c3ccnc(N)n3)c(-c3ccc(F)cc3)nc2c1
IC50 [1]: 0.26 nM
Activity [2]: 50%
Activity [3]: <50%
Activity [4]: 50%
Activity [5]: <50%

SMILES: Nc1nccc(-c2c(-c3ccc(F)cc3)nc3cc(C4CCN(CCc5ccccc5)CC4)ccn23)n1
IC50 [1]: 0.07 nM
Activity [7]: <50%
Activity [9]: <50%
Activity [11]: <50%

SMILES: CN(CCO)Cc1ccn2c(-c3ccnc(N)n3)c(-c3ccc(F)cc3)nc2c1
IC50 [1]: 0.4 nM
Activity [7]: <50%
Activity [9]: <50%
Activity [11]: <50%
Activity [13]: <50%

SMILES: CNC(=O)c1ccn2c(-c3ccnc(N)n3)c(-c3ccc(F)cc3)nc2c1
IC50 [1]: 3.1 nM
Activity [2]: <50%
Activity [3]: <50%
Activity [4]: <50%
Activity [5]: 50%

Continued by falling IC50 [1], values first:

IC50 [1]: 3 nM
SMILES: CN(C)c1ccn2c(-c3ccnc(N)n3)c(-c3ccc(F)cc3)nc2c1
Activity [2]: 80%
Activity [6]: <50%
Activity [7]: 50%
Activity [3]: 80%
Activity [8]: <50%
Activity [9]: <50%
Activity [4]: <50%
Activity [10]: <50%
Activity [11]: <50%
Activity [5]: 80%
Activity [12]: <50%
Activity [13]: 80%

IC50 [1]: 2.5 nM
SMILES: CN(C)C(=N)c1ccn2c(-c3ccnc(N)n3)c(-c3ccc(F)cc3)nc2c1
Activity [2]: <50%
Activity [3]: 50%
Activity [4]: <50%
Activity [5]: <50%

IC50 [1]: 1.33 nM
SMILES: CN(CC#N)Cc1ccn2c(-c3ccnc(N)n3)c(-c3ccc(F)cc3)nc2c1
Activity [2]: 80%
Activity [3]: 80%
Activity [4]: <50%
Activity [5]: <50%

IC50 [1]: 0.65 nM
SMILES: C#CCN(C)Cc1ccn2c(-c3ccnc(N)n3)c(-c3ccc(F)cc3)nc2c1
Activity [7]: <50%
Activity [9]: <50%
Activity [11]: <50%
Activity [13]: <50%

IC50 [1]: 0.4 nM
SMILES: CCC(CN(C)C)c1ccn2c(-c3ccnc(N)n3)c(-c3ccc(F)cc3)nc2c1 (stereo not given)
Activity [2]: 100%
Activity [3]: <50%
Activity [4]: <50%
Activity [5]: 100%

IC50 [1]: 0.13 nM
SMILES: CCCCCCN1CCC(c2ccn3c(-c4ccnc(N)n4)c(-c4ccc(F)cc4)nc3c2)CC1
Activity [7]: 50%
Activity [9]: <50%
Activity [11]: <50%

IC50 [1]: 0.13 nM
SMILES: CCC(C)CN1CCC(c2ccn3c(-c4ccnc(N)n4)c(-c4ccc(F)cc4)nc3c2)CC1 (stereo not given)
Activity [7]: 80%
Activity [9]: 80%
Activity [11]: <50%

IC50 [1]: 0.12 nM
SMILES: CC(C)CN1CCC(c2ccn3c(-c4ccnc(N)n4)c(-c4ccc(F)cc4)nc3c2)CC1
Activity [2]: 80%
Activity [6]: 50%
Activity [7]: 100%
Activity [3]: 100%
Activity [8]: 80%
Activity [9]: 80%
Activity [4]: 80%
Activity [10]: <50%
Activity [11]: 80%
Activity [5]: 80%
Activity [12]: <50%
Activity [13]: 100%

IC50 [1]: 0.12 nM
SMILES: CCCC(C)CN1CCC(c2ccn3c(-c4ccnc(N)n4)c(-c4ccc(F)cc4)nc3c2)CC1 (stereo not given)
Activity [7]: 80%
Activity [9]: <50%
Activity [11]: <50%

IC50 [1]: 0.065 nM
SMILES: CCCC(c1ccn2c(-c3ccnc(N)n3)c(-c3ccc(F)cc3)nc2c1)N(C)C (stereo not given)
Activity [2]: 100%
Activity [6]: <50%
Activity [7]: <50%
Activity [3]: 100%
Activity [8]: 80%
Activity [9]: 80%
Activity [4]: 100%
Activity [10]: <50%
Activity [11]: <50%
Activity [5]: 100%
Activity [12]: 100%
Activity [13]: <50%
